Experiments:
Panc02 cells = assay: MTT cytotoxicity assay, Panc02 monolayer culture; assay type: cell-based, murine
Experimental: (§1) The cytotoxic effect of the chemotherapeutic drug Gemcitabine (LC Laboratories, Woburn, Mass., USA) on Panc02 cell spheroids culture was compared to the cytotoxic effect on monolayer culture. For the cytotoxic assay, 1×10^4 cells suspended in complete medium were seeded in each well of a 96-well plate. Four (4)-day-old Panc02 spheroids were transferred to a new 96 ultra-low attachment well plate. The next day, the cells and spheroids were treated with different concentrations of Gemcitabine solution (0, 0.1, 1, 10, 25, 50, 100 μM) in sextuplicate wells. After incubating the cells with Gemcitabine for 48 h, 20 microliter (μl) of 3-(4,5-dimethylthiazol-2-yl)-2,5-diphenyltetrazolium bromide (MTT) solution (5 mg/ml) was added into each well, and the cells were incubated for 4 hours. […] Finally, absorbance was recorded at 570 nm using the Epoch™ microplate spectrophotometer (Bio-Tek Instruments, USA). […]
(§2) Parallel experiments were set with traditional 2D monolayer cell cultures to examine differential response of 2D and 3D cell cultures. Cell number and viability were measured using MTT assay after 2 days of Gemcitabine treatment. The IC50 value was calculated. […]

Panc02 cell spheroids = assay: MTT cytotoxicity assay, Panc02 cell spheroids culture; assay type: cell-based, murine
Experimental: as §1, §2

`Nc1ccn([C@@H]2O[C@H](CO)[C@@H](O)C2(F)F)c(=O)n1` [Gemcitabine] was tested, and the “response to the drug from regression curves, monolayer” value (Panc02 cells; 0-100 μM Gemcitabine, 48 h) was “dose-dependent response”, the IC50 (Panc02 cells; Mus musculus, Panc02, 2D monolayer culture, 48 h (2 days) Gemcitabine treatment) was 9.99 ± 0.07 µM and the “response to the drug from regression curves, spheroids” value (Panc02 cell spheroids; 0-100 μM Gemcitabine, 48 h) was “dose-dependent response”. It also gave an IC50 (Panc02 cell spheroids; Mus musculus, 4-day-old acoustically assembled Panc02 3D spheroids, 48 h (2 days) Gemcitabine treatment) of 18.38 ± 0.09 µM.

— patent publication US12590277B2, “High-throughput acoustofluidic fabrication of cell spheroids” (The Trustees of Indiana University, priority 2019, dated 2026)
